“And” between values parts separate entries of the source, which are not always exact repeats. Identical values can stand only once. “Also recorded” adds a separate entry of the source. Like-named read-outs stand apart in the source and are kept apart here.
Experiment: Tigecycline plasma PK and % F after PO enteric-coated capsule in dogs
Type: in vivo, Beagle dogs
Conditions: for bioavailability / AUC(0-t) / Cmax / Tmax / concentration at 0 min / concentration at 15 min / concentration at 30 min / concentration at 45 min: female, beagle, dog, plasma, po, 15 mg; for Tmax: read-out: Tmax (converted); for concentration at 0 min / concentration at 15 min / concentration at 30 min / concentration at 45 min: Tigecycline Plasma Concentration
Protocol: Adult beagle dogs weighing approximately 9 to 15 kg were used in the study. […] Room temperature was set to be maintained between approximately 20±5° C. Relative humidity was monitored but not controlled.
TEKLAD™ Certified Canine Diet was provided once daily in amounts (˜400 grams) appropriate for the size and age of the animals. Tap water was available ad libitum via automatic watering device or water bowls.
Oral dosing of enteric-coated capsules was accomplished by administering them to the back of the dog's mouth, followed by a chase of 5 mL water to ensure swallowing.
Water was provided ad libitum. […] Subsequently, each group of animals was dosed based on the protocol, i.e. either IV, or PO by capsule.
Minocycline (VWR international) was used as an internal standard. Sample processing/clean-up of plasma samples was carried out offline by protein precipitation with acidified acetonitrile using 0.5% trifluoroacetic acid (TFA).
The HPLC system consisted of Shimadzu SIL-HTc HPLC system equipped with dual Shimadzu LC-10ADvp isopumps, a Shimadzu CTO-10ASvp column temperature controller and a Shimadzu SPD-10Avp variable wavelength detector. […] Mobile phase A consisted of 23 mM phosphate buffer pH 2.5 with 4 mM 1-octanesulfonic acid, while mobile phase B consisting of 90% acetonitrile, 10% water, with 2 mM 1-octanesulfonic acid. […] The total runtime was 18 minutes per sample. The mobile phase flow rate was 1.2 mL/min. Detection was performed using the SPD-10Avp variable wavelength detector set at 350 nm, with a sensitivity of 0.001 aufs.
The samples were then centrifuged under refrigeration at 13 k rpm for 5 minutes. The supernatant was taken and the liquid removed to dryness under nitrogen in a turbovap. The dried extract was reconstituted in 60 μL of mobile phase A and the suspension was further centrifuged at 5 k rpm for 5 minutes to pellet any insoluble matter. The resulting supernatant was then injected onto the LC.
The unknown concentration in dog plasma samples was determined by interpolation of the peak area ratios of analyte:internal standard versus the ratio of their nominal concentrations into the regression line obtained from calibration standards spiked in pooled dog plasma. No regression weighting was used for the calculations. […] The calibration curve covered the range of 0.05 μg/mL to 5 μg/mL. […]
The capsules were enterically coated using a standard preclinical protocol to 10% weight gain. Two studies were conducted.

[1] = 15 min, PO 15 mg unformulated enteric-coated capsule, SC424, individual dogs
[2] = 30 min, PO 15 mg unformulated enteric-coated capsule, SC424, individual dogs
[3] = 45 min, PO 15 mg unformulated enteric-coated capsule, SC424, individual dogs

In the case of CN(C)c1cc(NC(=O)CNC(C)(C)C)c(O)c2c1C[C@H]1C[C@H]3[C@H](N(C)C)C(O)=C(C(N)=O)C(=O)[C@@]3(O)C(O)=C1C2=O [Tigecycline], the “Tigecycline Plasma Concentration” value [1] is reported as 0.00 ng/mL, the “Tigecycline Plasma Concentration” value [2] is reported as 0.00 ng/mL and the “Tigecycline Plasma Concentration” value [3] is reported as 0.00 ng/mL. The “Tigecycline Plasma Concentration” value (60 min, PO 15 mg unformulated enteric-coated capsule, SC424, individual dogs) was 0.00 ng/mL, the “Tigecycline Plasma Concentration” value (75 min, PO 15 mg unformulated enteric-coated capsule, SC424, individual dogs) was 0.00 ng/mL and the “Tigecycline Plasma Concentration” value (90 min, PO 15 mg unformulated enteric-coated capsule, SC424, individual dogs) was 0.00 ng/mL. For the same molecule, the “Tigecycline Plasma Concentration” value (120 min, PO 15 mg unformulated enteric-coated capsule, SC424, individual dogs) was 0.00 ng/mL, the “Tigecycline Plasma Concentration” value (150 min, PO 15 mg unformulated enteric-coated capsule, SC424, individual dogs) was 0.00 ng/mL and the “% F” value (PO 15 mg enteric-coated capsule with 500 mg CA and 100 mg LLC, SC424, calculated from IV data of SC427, individual dogs) was 13.6% and 3.9% and 30.3% and 17.0% and 2.0% and 8.3% and 12.0% and 10.6%. For the same molecule, the plasma exposure (PO 15 mg unformulated (microcrystalline cellulose filler) enteric-coated capsule (SC424)) was “No tigecycline exposure was observed; also recorded: did not result in observable plasma exposure”, the “% F” value (PO 30 mg enteric-coated capsule with 500 mg CA and 100 mg LLC, SC430, calculated from IV PK data of SC431, individual dogs) was 7.9% and 23.3% and 12.8% and 2.6% and the plasma exposure (PO 30 mg unformulated (microcrystalline cellulose filler) enteric-coated capsule (SC430)) was “No tigecycline exposure was observed; also recorded: did not result in observable plasma exposure”. The “% F” value (PO 45 mg enteric-coated capsule with 500 mg CA and 100 mg LLC, SC430, calculated from IV PK data of SC431, individual dogs) was 18.4% and 6.3% and 6.4% and 14.8% and 31.8%, the bioavailability (15 mg Formulated (500 mg CA, 100 mg LLC) enteric coated capsule, Study 1 (SC424), mean (% CV), read-out: % F) was 12.2% and the AUC(0-t) (15 mg Formulated (500 mg CA, 100 mg LLC) enteric coated capsule, Study 1 (SC424), mean (% CV), read-out: AUC(0-t)) was 133 ng·h/mL. It also gave a Cmax (15 mg Formulated (500 mg CA, 100 mg LLC) enteric coated capsule, Study 1 (SC424), mean (% CV), read-out: Cmax) of 75.5 ng/mL, a Tmax (15 mg Formulated (500 mg CA, 100 mg LLC) enteric coated capsule, Study 1 (SC424), mean (% CV)) of 1.85 h and a bioavailability (15 mg Unformulated enteric coated capsule, Study 1 (SC424), read-out: % F) of 0%. The AUC(0-t) (PO 15 mg ([…]) enteric-coated capsule with 500 mg CA and 100 mg LLC (SC424), read-out: AUC(0-t), mean) was 133 ng·h/mL, the Cmax (PO 15 mg ([…]) enteric-coated capsule with 500 mg CA and 100 mg LLC (SC424), read-out: Cmax, mean) was 75.5 ng/mL and the bioavailability (PO 15 mg ([…]) enteric-coated capsule with 500 mg CA and 100 mg LLC (SC424), read-out: absolute % F, mean) was 12.2%. For the same molecule, the bioavailability (PO 15 mg enteric-coated capsule with 500 mg CA and 100 mg LLC (SC424), read-out: % F, range of individual dogs) was 2 to 30%, the AUC(0-t) (PO 15 mg enteric-coated capsule with 500 mg CA and 100 mg LLC ([…]), SC424, mean, read-out: AUC(0-t)) was 133 ng·h/mL and the Cmax (PO 15 mg enteric-coated capsule with 500 mg CA and 100 mg LLC ([…]), SC424, mean, read-out: Cmax) was 75.5 ng/mL. For the same molecule, the Tmax (PO 15 mg enteric-coated capsule with 500 mg CA and 100 mg LLC ([…]), SC424, mean) was 1.85 h, the bioavailability (PO 15 mg enteric-coated capsule with 500 mg CA and 100 mg LLC, SC424, calculated from IV data of SC427, mean, read-out: % F) was 12.2% and the bioavailability (PO 15 mg unformulated enteric-coated capsule ([…]), SC424, individual dogs, read-out: % F) was 0%. It also gave a bioavailability (PO 15 mg unformulated enteric-coated capsule ([…]), SC424, mean, read-out: % F) of 0%, a bioavailability (Study 1 (SC424), 15 mg Formulated enteric coated capsule (500 mg citric acid, 100 mg LLC), oral, dogs, N=8, mean (% CV), based on that study's IV arm, read-out: % F) of 12.2% and a Tmax (Study 1 (SC424), 15 mg Formulated enteric coated capsule (500 mg citric acid, 100 mg LLC), oral, dogs, N=8, mean (% CV)) of 1.85 h. It also gave an AUC(0-t) (Study 1 (SC424), 15 mg Formulated enteric coated capsule (500 mg citric acid, 100 mg LLC), oral, dogs, N=8, mean (% CV), sampling 4 h, read-out: AUC(0-t)) of 133 ng·h/mL, a Cmax (Study 1 (SC424), 15 mg Formulated enteric coated capsule (500 mg citric acid, 100 mg LLC), oral, dogs, N=8, mean (% CV), sampling 4 h, read-out: Cmax) of 75.5 ng/mL and a bioavailability (Study 1 (SC424), 15 mg Unformulated enteric coated capsule (microcrystalline cellulose filler), oral, dogs, N=8, based on that study's IV arm, read-out: % F) of 0%. For the same molecule, the concentration at 0 min (PO 15 mg enteric-coated capsule with 500 mg CA and 100 mg LLC, SC424, individual dogs) was 0 ng/mL, the concentration at 0 min (PO 15 mg enteric-coated capsule with 500 mg CA and 100 mg LLC, SC424, mean) was 0 ng/mL and the concentration at 15 min (15 min, PO 15 mg enteric-coated capsule with 500 mg CA and 100 mg LLC, SC424, individual dogs) was 0 ng/mL. The concentration at 15 min (15 min, PO 15 mg enteric-coated capsule with 500 mg CA and 100 mg LLC, SC424, mean) was 0 ng/mL, the concentration at 15 min [1] was 0 ng/mL and the concentration at 15 min (15 min, PO 15 mg unformulated enteric-coated capsule, SC424, mean) was 0 ng/mL. The concentration at 30 min (30 min, PO 15 mg enteric-coated capsule with 500 mg CA and 100 mg LLC, SC424, individual dogs) was 0 ng/mL, the concentration at 30 min (30 min, PO 15 mg enteric-coated capsule with 500 mg CA and 100 mg LLC, SC424, mean) was 0 ng/mL and the concentration at 30 min [2] was 0 ng/mL. The concentration at 30 min (30 min, PO 15 mg unformulated enteric-coated capsule, SC424, mean) was 0 ng/mL, the concentration at 45 min (45 min, PO 15 mg enteric-coated capsule with 500 mg CA and 100 mg LLC, SC424, mean) was 8.45 ng/mL and the concentration at 45 min [3] was 0 ng/mL. The concentration at 45 min (45 min, PO 15 mg unformulated enteric-coated capsule, SC424, mean) was 0 ng/mL.
